What was measured:
pERK level in H358 cells = experiment: pERK and ERK protein content assay in H358 cells (ELISA); format: cell-based; details: Homo sapiens, NCI-H358, pERK/ERK ratio vs DMSO group, compound 1 μM, 24 h, read-out: Inhibition rate (%)
Procedure: H358 cells were seeded in a 24-well plate. After one day of growth, a test compound (at a concentration of 1 μM) was added. After 24 h of action of the compound, the cells were lysed, and the cell lysate was transferred to a 96-well ELISA plate. The levels of pERK and ERK in the lysate were measured using an ELISA kit (abcam 176660). The ratio of pERK to ERK was calculated and compared with that of the DMSO group, and the percentage of inhibition of pERK activity by the compound was calculated.

H358 cells = experiment: Antiproliferative activity against H358 cells (Cell Titer Glow, ultra-low attachment plate); format: cell-based; details: Homo sapiens, NCI-H358, 72 h, three days after addition of compound
Procedure: 2500 H358 cells were seeded in a 96-well ultra-low attachment plate (corning, 7007). After one day of growth, a serially diluted compound (a maximum concentration of 5 μM, 5-fold dilution, a total of five doses) was added. Three days after the addition of the compound, Cell Titer Glow (Promega, G9681) was added to evaluate pellet growth, and the IC50 value was calculated.

Row | Compound | inhibition at 1 µM (pERK level in H358 cells) [%] | IC50 (H358 cells) [nM]
1 | C=CC(=O)N1CC2(CCN(c3nc(O[C@H]4C[C@@H](N5CC6(CC6)C5)C4)nc4c(OCC(F)(F)F)c(-c5c(C)ccc6[nH]ncc56)c(C5CC5)cc34)CC2)C1 [Compound 93] | > 90 | < 300
2 | C=CC(=O)N1CC2(CCN(c3nc(N4CC(N(C)CCO)C4)nc4c(OCC(F)(F)F)c(-c5c(C)ccc6[nH]ncc56)c(C5CC5)cc34)CC2)C1 [Compound 21] | > 90 | < 300
3 | C=CC(=O)N1CC2(CCN(c3nc(N4CC5(CC(O)CN5C)C4)nc4c(OCC(F)(F)F)c(-c5c(C)ccc6[nH]ncc56)c(C5CC5)cc34)CC2)C1 (stereo not shown) [Compound 121] | > 90 | < 300
4 | C=CC(=O)N1CC2(CCN(c3nc(N4CC(C(=O)N5CC(N(C)C)C5)C4)nc4c(OCC(F)(F)F)c(-c5c(C)ccc6[nH]ncc56)c(C5CC5)cc34)CC2)C1 [Compound 47] | > 90 | < 300
5 | C=CC(=O)N1CC2(CCN(c3nc(N4CC5(CCN5C)C4)nc4c(OCC(F)(F)F)c(-c5c(C)ccc6[nH]ncc56)c(C5CC5)cc34)CC2)C1 [Compound 67] | > 90 | < 300
6 | C=CC(=O)N1CC2(CCN(c3nc(O[C@H]4C[C@H](N5CC6(CCC6)C5)C4)nc4c(OCC(F)(F)F)c(-c5c(C)ccc6[nH]ncc56)c(C5CC5)cc34)CC2)C1 [Compound 96] | > 90 | 300 to 1000
7 | C=CC(=O)N1CC2(CCN(c3nc(N4CC(COC5CN(C)C5)C4)nc4c(OCC(F)(F)F)c(-c5c(C)ccc6[nH]ncc56)c(C5CC5)cc34)CC2)C1 [Compound 11] | > 90 | < 300
8 | C=CC(=O)N1CC2(CCN(c3nc(N4CC5(CC(OC)CN5C)C4)nc4c(OCC(F)(F)F)c(-c5c(C)ccc6[nH]ncc56)c(C5CC5)cc34)CC2)C1 (stereo not shown) [Compound 123] | > 90 | < 300
9 | C=CC(=O)N1CC2(CCN(c3nc(N4CCC5(CCN5C)C4)nc4c(OCC(F)(F)F)c(-c5c(C)ccc6[nH]ncc56)c(C5CC5)cc34)CC2)C1 (stereo not shown) [Compound 77] | > 90 | < 300
10 | C=CC(=O)N1CC2(CCN(c3nc(N4CC(CC#N)(n5ccnc5)C4)nc4c(OCC(F)(F)F)c(-c5c(C)ccc6[nH]ncc56)c(C5CC5)cc34)CC2)C1 [Compound 57] | 50 to 90 | 300 to 1000
11 | C=CC(=O)N1CC2(CCN(c3nc(N4CC5(CC(=C)CN5C)C4)nc4c(OCC(F)(F)F)c(-c5c(C)ccc6[nH]ncc56)c(C5CC5)cc34)CC2)C1 [Compound 125] | > 90 | < 300
12 | C=CC(=O)N1CC2(CCN(c3nc(N4CC(C)(CN(C)C)C4)nc4c(OCC(F)(F)F)c(-c5c(C)ccc6[nH]ncc56)c(C5CC5)cc34)CC2)C1 [Compound 62] | > 90 | < 300
13 | C=CC(=O)N1CC2(CCN(c3nc(N4CC(OC5CCC5)C4)nc4c(OCC(F)(F)F)c(-c5c(C)ccc6[nH]ncc56)c(C5CC5)cc34)CC2)C1 [Compound 13] | > 90 | < 300
14 | C=CC(=O)N1CC2(CCN(c3nc(N4CC5(CCCN5CCF)C4)nc4c(OCC(F)(F)F)c(-c5c(C)ccc6[nH]ncc56)c(C5CC5)cc34)CC2)C1 [Compound 118] | > 90 | < 300
15 | C=CC(=O)N1CC2(CCN(c3nc(N4CC(N5CC6(CC6)C5)C4)nc4c(OCC(F)(F)F)c(-c5c(C)ccc6cn[nH]c56)c(C5CC5)cc34)CC2)C1 [Compound 109] | > 90 | < 300
16 | C=CC(=O)N1CC2(CCN(c3nc(N4CC(S(=O)(=O)N5CC(N(C)C)C5)C4)nc4c(OCC(F)(F)F)c(-c5c(C)ccc6[nH]ncc56)c(C5CC5)cc34)CC2)C1 [Compound 50] | 50 to 90 | 300 to 1000

Row | Compound | inhibition at 1 µM (pERK level in H358 cells) [%] | IC50 (H358 cells) [nM]
17 | C=CC(=O)N1CC2(CCN(c3nc(N4CC(COC5CC5)C4)nc4c(OCC(F)(F)F)c(-c5c(C)ccc6[nH]ncc56)c(C5CC5)cc34)CC2)C1 [Compound 10] | > 90 | < 300
18 | C=CC(=O)N1CC2(CCN(c3nc(N4CC(N5CC6(CSC6)C5)C4)nc4c(OCC(F)(F)F)c(-c5c(C)ccc6[nH]ncc56)c(C5CC5)cc34)CC2)C1 [Compound 31] | > 90 | < 300
19 | C=CC(=O)N1CC2(CCN(c3nc(N4CC(N5CC=CCC5)C4)nc4c(OCC(F)(F)F)c(-c5c(C)ccc6[nH]ncc56)c(C5CC5)cc34)CC2)C1 [Compound 43] | 50 to 90 | > 1000
20 | C=CC(=O)N1CC2(CCN(c3nc(N4CC5(CN(CCOC)CCO5)C4)nc4c(OCC(F)(F)F)c(-c5c(C)ccc6[nH]ncc56)c(C5CC5)cc34)CC2)C1 [Compound 82] | > 90 | < 300
21 | C=CC(=O)N1CC2(CCN(c3nc(N4CC(N5CC6(CC6)C5)C4)nc4c(OCC(F)(F)F)c(-c5c(F)ccc6cn[nH]c56)c(C5CC5)cc34)CC2)C1 [Compound 110] | > 90 | < 300
22 | C=CC(=O)N1CC2(CCN(c3nc(N4CC5(CCCN5CC)C4)nc4c(OCC(F)(F)F)c(-c5c(C)ccc6[nH]ncc56)c(C5CC5)cc34)CC2)C1 [Compound 116] | > 90 | < 300
23 | C=CC(=O)N1CC2(CCN(c3nc(N4CC(CN5CCOCC5)C4)nc4c(OCC(F)(F)F)c(-c5c(C)ccc6[nH]ncc56)c(C5CC5)cc34)CC2)C1 [Compound 8] | 50 to 90 | 300 to 1000
24 | C=CC(=O)N1CC2(CCN(c3nc(N4CC(S(=O)(=O)N5CCN(C)CC5)C4)nc4c(OCC(F)(F)F)c(-c5c(C)ccc6[nH]ncc56)c(C5CC5)cc34)CC2)C1 [Compound 49] | > 90 | < 300
25 | C=CC(=O)N1CC2(CCN(c3nc(N4CC5(CCN5CC(F)(F)F)C4)nc4c(OCC(F)(F)F)c(-c5c(C)ccc6[nH]ncc56)c(C5CC5)cc34)CC2)C1 [Compound 68] | > 90 | < 300
26 | C=CC(=O)N1CC2(CCN(c3nc(N4CC(N5CC6(CC6)C5)C4)nc4c(OCC(F)(F)F)c(-c5c(C)ccc6[nH]nc(C)c56)c(C5CC5)cc34)CC2)C1 [Compound 106] | > 90 | < 300
27 | C=CC(=O)N1CC2(CCN(c3nc(N4CC(C(=O)N5CC6(CN(C)C6)C5)C4)nc4c(OCC(F)(F)F)c(-c5c(C)ccc6[nH]ncc56)c(C5CC5)cc34)CC2)C1 [Compound 48] | 50 to 90 | 300 to 1000
28 | C=CC(=O)N1CC2(CCN(c3nc(N4CC(CO)C4)nc4c(OCC(F)(F)F)c(-c5c(C)ccc6[nH]ncc56)c(C5CC5)cc34)CC2)C1 [Compound 3] | 50 to 90 | 300 to 1000
29 | C=CC(=O)N1CC2(CCN(c3nc(N4CC(N(C)CC#N)C4)nc4c(OCC(F)(F)F)c(-c5c(C)ccc6[nH]ncc56)c(C5CC5)cc34)CC2)C1 [Compound 20] | 50 to 90 | 300 to 1000
30 | C=CC(=O)N1CC2(CCN(c3nc(N4CC(CC#N)(N(C)CCO)C4)nc4c(OCC(F)(F)F)c(-c5c(C)ccc6[nH]ncc56)c(C5CC5)cc34)CC2)C1 [Compound 52] | > 90 | < 300
31 | C=CC(=O)N1CC2(CCN(c3nc(N4CC(n5cccn5)C4)nc4c(OCC(F)(F)F)c(-c5c(C)ccc6[nH]ncc56)c(C5CC5)cc34)CC2)C1 [Compound 40] | 50 to 90 | > 1000
32 | C=CC(=O)N1CC2(CCN(c3nc(N4CC5(C4)CC(F)(F)CN5C)nc4c(OCC(F)(F)F)c(-c5c(C)ccc6[nH]ncc56)c(C5CC5)cc34)CC2)C1 [Compound 129] | > 90 | < 300
